Reference: patent US20180099961A1, “PROTEIN KINASE INHIBITORS” (Princeton Drug Discovery Inc, priority 2016, published 2018)
Read-outs that look alike come from different tables or passages of the source.

Tests used:
RAF1 = experiment: Off-chip Mobility Shift Assay; assay type: biochemical; conditions: 10 nM
PIK3CA/PIK3R1 = target: T1, PIK3CA/PIK3R1 (Homo sapiens, UniProt P42336); experiment: Off-chip Mobility Shift Assay; assay type: biochemical; conditions: read-out: IC50, recombinant PIK3CA/PIK3R1 activity
T1 construct: purchased Carna Biosciences

ACK = target: T2, ACK (Homo sapiens, UniProt Q07912); experiment: Off-chip Mobility Shift Assay; assay type: biochemical; conditions: read-out: IC50, recombinant ACK activity
T2 construct: purchased Carna Biosciences

PDGFRα = target: T3, PDGFRα (Homo sapiens, UniProt P16234); experiment: Off-chip Mobility Shift Assay; assay type: biochemical; conditions: read-out: IC50, recombinant PDGFRα activity
T3 construct: purchased Carna Biosciences

[1] = Metabolic stability in human liver microsomes; assay type: in vitro ADME; conditions: for metabolic stability as compared to dasatinib: human liver microsomes; for microsomal CLint at 1 μM / half-life at 1 μM: human, liver microsomes, human liver microsomes 0.5 mg/mL, NADPH and UDPGA, 37° C.; for microsomal CLint at 1 μM: read-out: CLint (intrinsic clearance); for half-life at 1 μM: read-out: In vitro t1/2
Method: FIG. 1. Metabolic stability of compounds in human liver microsomal incubations. […] Concentrations at specified times were determined by LC-MS/MS.
The incubation reactions at various time points were quenched by adding 2× volumes of acetonitrile containing 100 nM reserpine. The quenched incubation samples were centrifuged at 4000 RPM for 10 min, and the supernatants injected for LC/MS/MS analysis. LC/MS/MS analysis was carried out on a AB Sciex 4000 Q Trap LC/MS/MS system coupled with Shimadzu Prominence UFLCXR 20 series (including a CBM-20A controller, two LC-20ADXR solvent delivery units, SIL-20AC HT autosampler, CTO-20A column oven, and a SPD-20A UV detector).

BTK = target: T4, BTK (Homo sapiens, UniProt Q06187); experiment: Off-chip Mobility Shift Assay; assay type: biochemical; conditions: read-out: IC50, recombinant BTK activity
T4 construct: purchased Carna Biosciences

ABL = target: T5, ABL (Homo sapiens, UniProt P00519); experiment: Off-chip Mobility Shift Assay; assay type: biochemical; conditions: read-out: IC50, recombinant ABL activity
T5 construct: purchased Carna Biosciences

ABL(E255K) = target: T6, ABL(E255K) (Homo sapiens, UniProt P00519, E255K); experiment: Off-chip Mobility Shift Assay; assay type: biochemical; conditions: read-out: IC50, recombinant ABL (E255K) activity
T6 construct: purchased Carna Biosciences

[2] = Pharmacokinetics in Sprague-Dawley rats, 2-in-1 dosing; assay type: in vivo; conditions: for intravenous plasma clearance compared to dasatinib and compound III / intravenous volume of distribution compared to dasatinib and compound III: Sprague-Dawley rats; for clearance / Vd: single dose (Table 3); for clearance: read-out: CL (plasma clearance) (converted); for Vd: read-out: V (volume of distribution); for AUC(0-inf) / AUC(0-t) / half-life / Cmax / Tmax: single dose, plasma (Table 3); for half-life: read-out: t½ (converted)
Method: Sprague-Dawley rats (approximate weight 275-300 g, N=3) were dosed intravenously at 5 mL/kg and orally at 10 mL/kg with the above dosing solutions. Blood samples were collected into tubes containing EDTA as the anticoagulant at 0, 0.25 (intravenous only), 0.5, 1, 2, 4, 8, 10, and 24 h post-dosing, and plasma samples were prepared by centrifugation. The plasma samples were mixed with 3× volumes of acetonitrile containing 100 nM reserpine as the internal standard, and centrifuged at 4000 RPM for 15 min. The supernatants were injected for LC/MS analysis which were carried out on a AB Sciex 4000 Q Trap LC/MS/MS system coupled with Shimadzu Prominence UFLCXR 20 series (including a CBM-20A controller, two LC-20ADXR solvent delivery units, SIL-20AC HT autosampler, CTO-20A column oven, and a SPD-20A UV detector). The samples were separated on a Phenomenex Columbus column (C18, 4 μm, 50×2 mm) eluted with two solvent systems: 2 mM ammonium acetate in water containing 0.1% formic acid (A) and methanol (B) at a linear gradient starting with 25% B. Electrospray ionization in positive mode was used to acquire LC/MS/MS data.

[3] = Lung tissue and plasma concentration ratios in mice; assay type: in vivo, CD-1 mouse; conditions: single oral dose 5 mg/kg, 2-in-1 with dasatinib, all time points tested
Method: CD-1 mouse (approximate weight 30 g, N=3) were dosed by oral gavage at 10 mL/kg. Blood samples were collected into tubes containing EDTA as the anticoagulant at 1, 2, 4, 10 h post-dosing for Compound X, and predose, 1, 2, 3, 8, 10 and 24 h post-dosing for Compound XI. The plasma samples were prepared by centrifugation. Lung samples were also collected at each of the above time points. The lung samples were homogenated in 4× distilled water (v/w). The plasma samples and the homogenated lung tissue samples were mixed with 3× volumes of acetonitrile containing 100 nM reserpine as the internal standard, and centrifuged at 4000 RPM for 15 min. The supernatants were injected for LC/MS analysis which were carried out on a AB Sciex 4000 Q Trap LC/MS/MS system coupled with Shimadzu Prominence UFLCXR 20 series (including a CBM-20A controller, two LC-20ADXR solvent delivery units, SIL-20AC HT autosampler, CTO-20A column oven, and a SPD-20A UV detector). The samples were separated on a Phenomenex Columbus column (C18, 4 μm, 50×2 mm) eluted with two solvent systems: 2 mM ammonium acetate in water containing 0.1% formic acid (A) and methanol (B) at a linear gradient starting at 25%. Electrospray ionization in positive mode was used to acquire LC/MS/MS data.

BTK (C481S) = target: T7, BTK (C481S) (Homo sapiens, UniProt Q06187, C481S); experiment: Off-chip Mobility Shift Assay; assay type: biochemical; conditions: read-out: IC50, recombinant BTK (C481S) activity
T7 construct: purchased Carna Biosciences

[4] = Sprague-Dawley, rat, plasma, iv, 1 mg/kg, intravenous 1 mg/kg
[5] = Sprague-Dawley, rat, plasma, po, 5 mg/kg, PO 5 mg/kg
[6] = Sprague-Dawley, rat, PO 5 mg/kg

T4 sequence (Q06187 whole entry): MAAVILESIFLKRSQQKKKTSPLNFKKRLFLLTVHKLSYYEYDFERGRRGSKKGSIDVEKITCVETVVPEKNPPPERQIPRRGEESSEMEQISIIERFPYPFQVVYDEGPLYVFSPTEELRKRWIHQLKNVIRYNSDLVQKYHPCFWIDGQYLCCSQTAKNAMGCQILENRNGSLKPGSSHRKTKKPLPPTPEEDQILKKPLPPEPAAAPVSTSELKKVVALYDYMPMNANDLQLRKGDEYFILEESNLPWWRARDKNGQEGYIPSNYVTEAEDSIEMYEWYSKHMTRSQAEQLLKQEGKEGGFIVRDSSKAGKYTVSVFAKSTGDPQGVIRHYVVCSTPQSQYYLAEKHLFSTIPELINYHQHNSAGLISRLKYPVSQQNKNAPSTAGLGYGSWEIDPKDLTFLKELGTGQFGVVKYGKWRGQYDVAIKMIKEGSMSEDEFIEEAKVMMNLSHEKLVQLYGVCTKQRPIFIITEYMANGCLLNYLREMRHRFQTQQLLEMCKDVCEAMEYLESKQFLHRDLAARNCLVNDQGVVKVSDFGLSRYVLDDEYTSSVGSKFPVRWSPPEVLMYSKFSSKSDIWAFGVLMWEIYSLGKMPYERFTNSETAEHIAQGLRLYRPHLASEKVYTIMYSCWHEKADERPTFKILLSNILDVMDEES
T6 sequence (P00519 whole entry E255K): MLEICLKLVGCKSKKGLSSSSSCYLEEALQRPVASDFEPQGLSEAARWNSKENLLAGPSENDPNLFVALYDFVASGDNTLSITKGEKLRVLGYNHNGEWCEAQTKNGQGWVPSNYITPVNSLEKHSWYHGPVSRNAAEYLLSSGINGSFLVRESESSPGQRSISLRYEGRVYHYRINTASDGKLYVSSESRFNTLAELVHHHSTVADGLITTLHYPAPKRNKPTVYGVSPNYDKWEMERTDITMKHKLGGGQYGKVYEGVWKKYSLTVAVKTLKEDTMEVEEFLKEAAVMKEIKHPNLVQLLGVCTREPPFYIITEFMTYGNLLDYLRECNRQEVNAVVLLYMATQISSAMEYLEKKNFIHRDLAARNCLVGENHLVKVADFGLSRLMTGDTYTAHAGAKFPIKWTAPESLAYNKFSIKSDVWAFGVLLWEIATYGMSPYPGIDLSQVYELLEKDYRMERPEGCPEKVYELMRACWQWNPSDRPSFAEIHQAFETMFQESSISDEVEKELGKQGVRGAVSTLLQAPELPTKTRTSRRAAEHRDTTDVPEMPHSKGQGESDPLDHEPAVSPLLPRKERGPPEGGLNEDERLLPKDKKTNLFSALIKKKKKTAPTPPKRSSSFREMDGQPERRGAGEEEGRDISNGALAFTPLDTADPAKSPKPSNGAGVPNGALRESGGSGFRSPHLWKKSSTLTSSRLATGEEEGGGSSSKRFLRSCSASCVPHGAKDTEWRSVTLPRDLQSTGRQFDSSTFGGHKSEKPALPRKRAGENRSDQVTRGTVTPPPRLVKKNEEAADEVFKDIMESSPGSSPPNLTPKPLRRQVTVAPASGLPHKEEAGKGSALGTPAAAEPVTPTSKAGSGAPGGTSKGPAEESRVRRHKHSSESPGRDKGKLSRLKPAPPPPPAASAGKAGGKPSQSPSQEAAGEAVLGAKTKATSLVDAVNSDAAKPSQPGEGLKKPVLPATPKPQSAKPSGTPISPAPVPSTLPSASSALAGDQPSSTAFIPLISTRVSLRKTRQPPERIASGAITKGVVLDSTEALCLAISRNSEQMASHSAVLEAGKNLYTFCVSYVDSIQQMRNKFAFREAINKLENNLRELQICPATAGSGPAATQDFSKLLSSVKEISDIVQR
T5 sequence (P00519 whole entry): as the sequence (P00519 whole entry E255K) above, with K255E counted along it
T7 sequence (Q06187 whole entry C481S): as the sequence (Q06187 whole entry) above, with C481S counted along it
T3 sequence (P16234 24-1089): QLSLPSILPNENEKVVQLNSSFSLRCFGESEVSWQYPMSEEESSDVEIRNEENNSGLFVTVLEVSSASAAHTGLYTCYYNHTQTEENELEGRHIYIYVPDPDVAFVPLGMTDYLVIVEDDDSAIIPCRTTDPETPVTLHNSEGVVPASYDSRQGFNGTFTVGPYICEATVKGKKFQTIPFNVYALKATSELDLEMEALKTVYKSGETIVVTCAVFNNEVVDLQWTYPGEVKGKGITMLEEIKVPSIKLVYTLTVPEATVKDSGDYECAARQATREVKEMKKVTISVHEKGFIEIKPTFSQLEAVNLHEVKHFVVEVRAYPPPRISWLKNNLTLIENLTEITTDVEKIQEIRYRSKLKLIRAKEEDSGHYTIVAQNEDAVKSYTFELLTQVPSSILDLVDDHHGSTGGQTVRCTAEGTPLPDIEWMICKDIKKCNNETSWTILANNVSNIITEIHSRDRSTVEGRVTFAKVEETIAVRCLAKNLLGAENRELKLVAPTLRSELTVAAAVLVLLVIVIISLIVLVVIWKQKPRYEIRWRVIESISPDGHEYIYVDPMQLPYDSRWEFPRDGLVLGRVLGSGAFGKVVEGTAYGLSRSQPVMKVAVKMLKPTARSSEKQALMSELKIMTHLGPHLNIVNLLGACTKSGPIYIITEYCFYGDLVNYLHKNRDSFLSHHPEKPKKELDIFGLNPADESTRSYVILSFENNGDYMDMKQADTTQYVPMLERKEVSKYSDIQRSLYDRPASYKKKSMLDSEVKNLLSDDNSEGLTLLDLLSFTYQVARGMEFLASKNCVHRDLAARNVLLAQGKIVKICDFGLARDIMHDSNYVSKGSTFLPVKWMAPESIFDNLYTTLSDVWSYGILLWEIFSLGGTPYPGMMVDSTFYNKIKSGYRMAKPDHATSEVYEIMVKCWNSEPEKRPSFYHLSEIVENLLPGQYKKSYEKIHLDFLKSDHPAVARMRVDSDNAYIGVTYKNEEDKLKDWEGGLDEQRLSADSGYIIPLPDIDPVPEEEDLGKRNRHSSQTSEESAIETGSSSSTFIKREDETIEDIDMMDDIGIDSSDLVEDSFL
T2 sequence (Q07912 whole entry): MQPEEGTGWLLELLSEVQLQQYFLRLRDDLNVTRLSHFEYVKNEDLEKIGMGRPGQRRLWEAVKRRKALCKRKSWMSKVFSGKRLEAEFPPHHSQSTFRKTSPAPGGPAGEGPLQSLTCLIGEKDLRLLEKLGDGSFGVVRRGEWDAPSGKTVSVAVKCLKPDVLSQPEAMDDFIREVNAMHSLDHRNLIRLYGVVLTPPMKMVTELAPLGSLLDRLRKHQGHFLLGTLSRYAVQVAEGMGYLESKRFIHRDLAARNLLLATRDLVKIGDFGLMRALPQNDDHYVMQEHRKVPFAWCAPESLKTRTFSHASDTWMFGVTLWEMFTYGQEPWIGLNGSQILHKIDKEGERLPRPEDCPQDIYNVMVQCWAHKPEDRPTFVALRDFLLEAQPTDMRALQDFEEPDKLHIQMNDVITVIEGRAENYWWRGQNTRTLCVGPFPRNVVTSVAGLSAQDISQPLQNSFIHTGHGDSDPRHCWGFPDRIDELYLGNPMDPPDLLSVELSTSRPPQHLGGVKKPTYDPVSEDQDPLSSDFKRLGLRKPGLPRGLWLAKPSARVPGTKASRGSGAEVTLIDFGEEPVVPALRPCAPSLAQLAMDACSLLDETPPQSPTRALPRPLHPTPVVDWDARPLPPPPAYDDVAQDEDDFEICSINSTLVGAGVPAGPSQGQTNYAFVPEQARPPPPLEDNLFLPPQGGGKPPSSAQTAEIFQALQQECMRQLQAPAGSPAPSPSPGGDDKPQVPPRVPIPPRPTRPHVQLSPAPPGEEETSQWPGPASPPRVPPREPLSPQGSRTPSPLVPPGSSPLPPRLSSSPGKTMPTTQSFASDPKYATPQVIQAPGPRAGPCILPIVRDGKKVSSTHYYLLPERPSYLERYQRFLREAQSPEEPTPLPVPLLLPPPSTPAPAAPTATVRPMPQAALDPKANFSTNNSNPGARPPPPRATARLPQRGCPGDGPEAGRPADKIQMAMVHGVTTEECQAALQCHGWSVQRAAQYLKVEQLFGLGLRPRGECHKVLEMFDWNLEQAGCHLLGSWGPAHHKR

[2H]c1cc(C)c(NC(=O)c2cnc(Nc3cc(N4CCCCC4)nc(C)n3)s2)c(Cl)c1 [Compound I, N-(2-chloro-4-deuterio-6-methyl-phenyl)-2-[[2-methyl-6-(1-piperidyl)pyrimidin-4-yl]amino]thiazole-5-carboxamide]
inhibition of RAF1 (RAF1): < 50%
IC50 (PIK3CA/PIK3R1): ~12 nM
IC50 (ACK): ~0.5 nM
IC50 (PDGFRα): ~1.4 nM
metabolic stability as compared to dasatinib [1]: significantly greater stability
IC50 (BTK): ~0.2 nM

Cc1nc(Nc2ncc(C(=O)Nc3c(C)cccc3Cl)s2)cc(N2CC[C@H](O)C2)n1 [Compound X, N-(2-chloro-6-methylphenyl)-2-[[2-methyl-6-((S)-3-hydroxypyrrolidin-1-yl)pyrimidin-4-yl]amino]thiazole-5-carboxamide]
IC50 (ABL): < 1 nM
IC50 (ABL(E255K)): < 1 nM
metabolic stability as compared to dasatinib [1]: significantly greater stability
microsomal CLint at 1 μM [1]: < 24 µL/min/mg
half-life at 1 μM [1]: > 0.983 h
IC50 (BTK): < 1 nM
intravenous plasma clearance compared to dasatinib and compound III [2]: much lower
intravenous volume of distribution compared to dasatinib and compound III [2]: significantly lower
clearance [2, 4]: 6.75 mL/min/kg
Vd [2, 4]: 1 L/kg
AUC(0-inf) [2, 4]: 2520 ± 446 ng·h/mL
AUC(0-t) [2, 4]: 2520 ± 446 ng·h/mL
half-life [2, 4]: 1.6 ± 0.2 h
AUC(0-inf) [2, 5]: 1200 ± 349 ng·h/mL
AUC(0-t) [2, 5]: 1120 ± 369 ng·h/mL
half-life [2, 5]: 6.8 ± 4.1 h
Cmax [2, 6]: 93 ± 101 ng/mL
Tmax [2, 6]: 0.5 h
ratio of lung tissue concentration to plasma concentration as compared to dasatinib [3]: significantly lower
IC50 (BTK (C481S)): < 1 nM

Cc1nc(Nc2ncc(C(=O)Nc3c(C)cccc3Cl)s2)cc(N2CC[C@@H](O)C2)n1 [Compound XI, N-(2-chloro-6-methylphenyl)-2-[[2-methyl-6-((R)-3-hydroxypyrrolidin-1-yl)pyrimidin-4-yl]amino]thiazole-5-carboxamide]
IC50 (ABL): < 1 nM
IC50 (ABL(E255K)): < 1 nM
metabolic stability as compared to dasatinib [1]: significantly greater stability
microsomal CLint at 1 μM [1]: < 24 µL/min/mg
half-life at 1 μM [1]: > 0.983 h
IC50 (BTK): < 1 nM
intravenous plasma clearance compared to dasatinib and compound III [2]: much lower
intravenous volume of distribution compared to dasatinib and compound III [2]: significantly lower
clearance [2, 4]: 6.77 mL/min/kg
Vd [2, 4]: 1 L/kg
AUC(0-inf) [2, 4]: 2480 ± 243 ng·h/mL
AUC(0-t) [2, 4]: 2480 ± 243 ng·h/mL
half-life [2, 4]: 1.6 ± 0.2 h
AUC(0-inf) [2, 5]: 1500 ± 273 ng·h/mL
AUC(0-t) [2, 5]: 1420 ± 343 ng·h/mL
half-life [2, 5]: 6 ± 3.6 h
bioavailability ([2]; Sprague-Dawley, rat, plasma, PO 5 mg/kg versus intravenous 1 mg/kg, AUCinf dose normalized (Table 3), read-out: F (percent oral bioavailability)): 24 ± 33.1%
Cmax [2, 6]: 102 ± 86 ng/mL
Tmax [2, 6]: 0.5 h
ratio of lung tissue concentration to plasma concentration as compared to dasatinib [3]: significantly lower
IC50 (BTK (C481S)): < 1 nM
